The source of these data is ChEMBL document CHEMBL2390944, “Discovery and optimization of arylsulfonyl 3-(pyridin-2-yloxy)anilines as novel GPR119 agonists” (Bioorg Med Chem Lett, 2013).

The nature of data set [1]: Metabolic stability in mouse liver microsomes assessed as compound turnover after 30 mins. Format: ADME, Microsome. As to conditions: read-out: Drug metabolism. For orientation: Liver microsomes are vesicles of endoplasmic reticulum, rich in cytochrome P450 enzymes.
A short description of data set [2]: in vitro. As to conditions: human, liver microsomes.
Data set [3] is described as follows: in vivo. As to conditions: rat, iv, 0.5 mg/kg.

`Cc1ccc(S(=O)(=O)Nc2cccc(Oc3nc(C)cc(C)c3C#N)c2)cc1`: the metabolised at 0.5 h in data set [1] is 100%; in data set [2], 72%.
In the case of `N#Cc1c(C(F)(F)F)cc(C2CC2)nc1Oc1cccc(NS(=O)(=O)c2ccc(Cl)cc2)c1`, the clearance (usually the rate of elimination divided by the concentration) in data set [3] was 0.19 L/h/kg. In addition, in data set [2], the metabolised at 0.5 h was found to be 13%.
